From patent publication US6806230B1, “Pyrimidine derivatives and herbicides containing them” (Kumiai Chemical Industry Co., Ltd., priority 1999, dated 2004)

What was measured:
Format in all cases: in vivo
[1] = test system: barnyard grass (Eo); assay: Test Example 1: herbicidal effects by flooded paddy field treatment; design: herbicidal effects, Eo (barnyard grass):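 0-5 growth inhibition grade; 5 = over 90%; 4 = 70-90%; 3 = 50-70%; 2 = 30-50%; 1 = 10-30%; 0 = under 10%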; details: dose 100 g active ingredient per 10 ares, examined on the 21st day after treatment, standards of Table 44
How it was run: (§1)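 Herbicidal effect scored 21 days post-treatment after greenhouse cultivation. Treatment was applied dropwise to the water surface, one day after sowing, as a diluted wettable powder (100 g a.i./10 ares). Pots held puddled paddy soil under 3 cm water.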

[2] = test system: monochoria (Mo); assay: as above; design: herbicidal effects, Mo (monochoria):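 0-5 growth inhibition grade; 5 = over 90%; 4 = 70-90%; 3 = 50-70%; 2 = 30-50%; 1 = 10-30%; 0 = under 10%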; details: dose 100 g active ingredient per 10 ares, examined on the 21st day after treatment, standards of Table 44
How it was run: as §1

[3] = test system: barnyard grass (Ec); assay: Test Example 2: herbicidal effects by upland soil treatment; design: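 0-5 growth inhibition grade; 5 = over 90%; 4 = 70-90%; 3 = 50-70%; 2 = 30-50%; 1 = 10-30%; 0 = under 10%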; details: dose 100 g active ingredient per 10 ares, examined on the 21st day after treatment
How it was run: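 Pre-emergence test: barnyard grass and green foxtail sown in upland soil, then soil surface sprayed with wettable-powder formulation at 100 g active ingredient per 10 ares (100 l per 10 ares). Grown in greenhouse; herbicidal effect scored on a rating scale 21 days after treatment.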

[4] = test system: barnyard grass (Ec); assay: Test Example 3: herbicidal effects by foliage treatment in upland field; design: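 0-5 growth inhibition grade; 5 = over 90%; 4 = 70-90%; 3 = 50-70%; 2 = 30-50%; 1 = 10-30%; 0 = under 10%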; details: dose 100 g active ingredient per 10 ares, examined on the 14th day after treatment
How it was run: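 Barnyard grass and green foxtail were grown in upland soil for 2 weeks in a greenhouse. A water-diluted wettable powder was sprayed over the foliage at 100 l per 10 ares, giving 100 g active ingredient per 10 ares. Herbicidal effect was scored on day 14 after treatment.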

[5] = test system: barnyard grass (Eo); assay: Test Example 4: selectivity for a crop plant by flooded paddy field treatment; design: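 0-5 growth inhibition grade; 5 = over 90%; 4 = 70-90%; 3 = 50-70%; 2 = 30-50%; 1 = 10-30%; 0 = under 10%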; details: barnyard grass, dose 25 gai/10a, 21st day after treatment, index per Table 44
How it was run: (§2)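 Flooded-paddy treatment: the wettable powder formulation, diluted in water, was applied dropwise to 3 cm floodwater at 25 g a.i./10 ares one day after sowing barnyard grass and monochoria and transplanting rice at the second leaf stage. Greenhouse grown; herbicidal effect rated against set standards on day 21.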

[6] = test system: monochoria (Mo); assay: as above; design: scale not given here; details: monochoria, dose 25 gai/10a, 21st day after treatment, index per Table 44
How it was run: as §2

[7] = test system: rice (Or); assay: as above; design: scale not given here; details: rice transplanted at second leaf stage, dose 25 gai/10a, 21st day after treatment, index per Table 44
How it was run: as §2

Compound | herbicidal effects, Eo (barnyard grass) [1] | herbicidal effects, Mo (monochoria) [2] | Ec (herbicidal effects, index) [3] | Ec (herbicidal effects, index) [4] | Eo (herbicidal effect index) [5] | Mo (herbicidal effect index) [6] | Or (herbicidal effect index on crop) [7]
C#CCN(C(=O)Cc1ccccc1)C(CCC)c1cncnc1CC (racemic) [1-606] | 5 | 5 | 5 | 4 | 5 | 5 | 1
CCC(c1cncnc1C(C)(C)C)N(C)C(=O)Cc1ccc(Cl)cc1 (racemic) [1-572] | 5 | 5 | 5 | 4 | 5 | 5 | 1
C#CCN(C(=O)Cc1cccc(F)c1)C(c1cncnc1C(F)(F)F)C(C)C (racemic) [1-569] | 5 | 5 | 5 | 5 | 5 | 5 | 1
COC(C)(OC)c1ncncc1C(C(C)C)N(C)C(=O)Cc1ccc(Cl)cc1 (racemic) [1-517] | 5 | 5 | 5 | 4 | 5 | 5 | 1
COc1ccc(C(c2cncnc2C(F)(F)F)N(C)C(=O)Cc2ccccc2)cc1 (racemic) [1-484] | 5 | 5 | 5 | 5 | 5 | 5 | 1
CC(C)C(c1cncnc1C(F)(F)F)N(C)C(=O)N(C)c1ccc(C#N)cc1 (racemic) [1-459] | 5 | 5 | 5 | 4 | 5 | 5 | 1
CON=Cc1ncncc1C(C(C)C)N(C)C(=O)Cc1ccccc1 (racemic) [1-496] | 5 | 5 | 5 | 4 | 5 | 5 | 1
C#CCN(C(=O)Cc1ccc(F)cc1)C(CCC)c1cncnc1C(C)C (racemic) [1-611] | 5 | 5 | 5 | 4 | 5 | 5 | 1
C#CCN(C(=O)Cc1ccc(F)cc1)C(c1cncnc1CC)C(C)C (racemic) [1-559] | 5 | 5 | 5 | 4 | 5 | 5 | 1
CC(C)C(c1cncnc1C#N)N(C)C(=O)Cc1ccc(Cl)cc1 (racemic) [1-506] | 5 | 5 | 5 | 4 | 5 | 5 | 1
C#CCN(C(=O)Cc1ccccc1)C(c1cncnc1CC)C(C)C (racemic) [1-558] | 5 | 5 | 5 | 4 | 5 | 5 | 1
CN(C(=O)Cc1ccc(F)cc1)C(c1ccsc1)c1cncnc1C(F)(F)F (racemic) [1-441] | 5 | 5 | 5 | 4 | 5 | 5 | 1
CC(C)c1ncncc1C(C(C)C)N(C)C(=O)Cc1ccc(Cl)s1 (racemic) [2-71] | 5 | 5 | 5 | 5 | 5 | 5 | 1
Cc1ccc(CC(=O)N(C)C(c2cncnc2C(F)(F)F)C2(C)CC2)cc1 (racemic) [1-412] | 5 | 5 | 5 | 4 | 5 | 5 | 1
CC(=O)c1ncncc1C(C(C)C)N(C)C(=O)Cc1ccc(Cl)cc1 (racemic) [1-528] | 5 | 5 | 5 | 4 | 5 | 5 | 1
CC(C)CC(c1cncnc1C(F)(F)F)N(C)C(=O)Cc1cccc(F)c1 (racemic) [1-334] | 5 | 5 | 5 | 4 | 5 | 5 | 0
CC(=O)c1ncncc1C(C(C)C)N(C)C(=O)Cc1ccc(C)cc1 (racemic) [1-529] | 5 | 5 | 5 | 5 | 5 | 5 | 1
COc1ncncc1C(C(C)C)N(C)C(=O)Cc1ccc(C)cc1 (racemic) [1-404] | 5 | 5 | 5 | 5 | 5 | 5 | 1
Cc1ccc(CC(=O)N(C)C(c2cncnc2C(F)(F)F)C(C)C)s1 (racemic) [2-50] | 5 | 5 | 5 | 4 | 5 | 5 | 1
